The values below come from paper PMC5218480 (PLoS ONE, 2017).

Each structure is given as a SMILES string.

The experiment has as its system MV-4-11 cells. The experiment can be described thus: Gene expression microarray analysis (Affymetrix PrimeView) and GSEA. It is filed as cell-based, human. Also on record: RFU PODN (11730768_x_at) / Fold change /veh PODN (11730768_x_at) / RFU LINC00158 (11744669_a_at) / Fold change /veh LINC00158 (11744669_a_at) / RFU DUSP10 (11751237_a_at) / Fold change /veh DUSP10 (11751237_a_at) / RFU ID3 (11757404_x_at) / Fold change /veh ID3 (11757404_x_at) / RFU PLEKHG5 (11737974_s_at) / Fold change /veh PLEKHG5 (11737974_s_at) / RFU LRRC4B (11730491_at) / Fold change /veh LRRC4B (11730491_at) / RFU GIMAP4 (11747438_a_at) / Fold change /veh GIMAP4 (11747438_a_at) / RFU KRT8 (11758183_x_at) / Fold change /veh KRT8 (11758183_x_at) / RFU CNN1 (11734310_a_at) / Fold change /veh CNN1 (11734310_a_at) / RFU VPS37D (11726825_at) / Fold change /veh VPS37D (11726825_at) / RFU C10orf10 (11716522_x_at) / Fold change /veh C10orf10 (11716522_x_at) / RFU KIR2DL2 /// KIR2DL4 /// KIR2DL5A /// KIR2DL5B /// KIR2DS1 /// KIR2DS2 /// KIR2DS3 /// KIR2DS4 /// KIR3DL3 /// KIR3DL3 /// KIR3DS1 (11738374_at) / Fold change /veh KIR2DL2 /// KIR2DL4 /// KIR2DL5A /// KIR2DL5B /// KIR2DS1 /// KIR2DS2 /// KIR2DS3 /// KIR2DS4 /// KIR3DL3 /// KIR3DL3 /// KIR3DS1 (11738374_at) / RFU C1QL1 (11718748_at) / Fold change /veh C1QL1 (11718748_at) / RFU TMPRSS4 (11747572_a_at) / Fold change /veh TMPRSS4 (11747572_a_at) / RFU HAMP (11756126_x_at) / Fold change /veh HAMP (11756126_x_at) / RFU RNFT2 (11725882_a_at) / Fold change /veh RNFT2 (11725882_a_at) / RFU NR4A2 (11747474_a_at) / Fold change /veh NR4A2 (11747474_a_at) / RFU ABCC12 (11746883_a_at) / Fold change /veh ABCC12 (11746883_a_at) / RFU TMEM136 (11760407_x_at) / Fold change /veh TMEM136 (11760407_x_at) / RFU CLDN22 /// WWC2 (11732394_at) / Fold change /veh CLDN22 /// WWC2 (11732394_at) / RFU HLA-DPB1 (11760878_x_at) / Fold change /veh HLA-DPB1 (11760878_x_at) / RFU SPINT1 (11716480_a_at) / Fold change /veh SPINT1 (11716480_a_at) / RFU GAP43 (11754022_s_at) / Fold change /veh GAP43 (11754022_s_at) / RFU A4GNT (11735810_at) / Fold change /veh A4GNT (11735810_at) / RFU PRB3 (11715151_x_at) / Fold change /veh PRB3 (11715151_x_at) / RFU TUBB4B (11761932_at) / Fold change /veh TUBB4B (11761932_at) / RFU CAPN14 (11732068_a_at) / Fold change /veh CAPN14 (11732068_a_at) / RFU TMCC2 (11721928_a_at) / Fold change /veh TMCC2 (11721928_a_at) / RFU IRGQ (11745062_a_at) / Fold change /veh IRGQ (11745062_a_at) / RFU FAM174B (11720279_a_at) / Fold change /veh FAM174B (11720279_a_at) / RFU TMPRSS4 (11748680_a_at) / Fold change /veh TMPRSS4 (11748680_a_at) / RFU FAM212B (11763350_a_at) / Fold change /veh FAM212B (11763350_a_at) / RFU PLEKHG5 (11743358_a_at) / Fold change /veh PLEKHG5 (11743358_a_at) / RFU ZSCAN30 (11745921_a_at) / Fold change /veh ZSCAN30 (11745921_a_at) / RFU CMKLR1 (11741424_a_at) / Fold change /veh CMKLR1 (11741424_a_at) / RFU LOC101060620 /// MAPK8IP1 (11723275_at) / Fold change /veh LOC101060620 /// MAPK8IP1 (11723275_at) / RFU SPTSSB (11747773_x_at) / Fold change /veh SPTSSB (11747773_x_at) / RFU PRSS12 (11739890_at) / Fold change /veh PRSS12 (11739890_at) / RFU BIN1 (11741810_x_at) / Fold change /veh BIN1 (11741810_x_at) / RFU WNT11 (11732464_a_at) / Fold change /veh WNT11 (11732464_a_at) / RFU C10orf10 (11716521_a_at) / Fold change /veh C10orf10 (11716521_a_at) / RFU C5orf56 (11738089_at) / Fold change /veh C5orf56 (11738089_at) / RFU CYB561 (11721691_x_at) / Fold change /veh CYB561 (11721691_x_at) / RFU ANKRD19P (11752326_a_at) / Fold change /veh ANKRD19P (11752326_a_at) / RFU OR2T12 /// OR2T33 /// OR2T8 (11738714_s_at) / Fold change /veh OR2T12 /// OR2T33 /// OR2T8 (11738714_s_at) / RFU VCAN (11748164_a_at) / Fold change /veh VCAN (11748164_a_at) / RFU JSRP1 (11732532_at) / Fold change /veh JSRP1 (11732532_at) / RFU KRTAP10-11 (11738290_x_at) / Fold change /veh KRTAP10-11 (11738290_x_at) / RFU MYO3A (11730013_a_at) / Fold change /veh MYO3A (11730013_a_at) / RFU EBF3 (11725865_a_at) / Fold change /veh EBF3 (11725865_a_at) / RFU CAMK2N1 (11719241_x_at) / Fold change /veh CAMK2N1 (11719241_x_at) / RFU C5orf56 (11738088_a_at) / Fold change /veh C5orf56 (11738088_a_at) / RFU OLFML3 (11715873_a_at) / Fold change /veh OLFML3 (11715873_a_at) / RFU LOC100653217 /// NTM (11731650_a_at) / Fold change /veh LOC100653217 /// NTM (11731650_a_at) / RFU MAPK11 (11762145_a_at) / Fold change /veh MAPK11 (11762145_a_at) / RFU FIZ1 (11724087_x_at) / Fold change /veh FIZ1 (11724087_x_at) / RFU OASL (11726364_x_at) / Fold change /veh OASL (11726364_x_at) / RFU SOX15 (11748057_x_at) / Fold change /veh SOX15 (11748057_x_at) / RFU CD79A (11719716_a_at) / Fold change /veh CD79A (11719716_a_at) / RFU HIST1H1D (11736915_at) / Fold change /veh HIST1H1D (11736915_at) / RFU CASKIN2 (11723855_a_at) / Fold change /veh CASKIN2 (11723855_a_at) / RFU LOC730098 (11760151_x_at) / Fold change /veh LOC730098 (11760151_x_at) / RFU OR4N2 (11742367_at) / Fold change /veh OR4N2 (11742367_at) / RFU PRRT2 (11749266_a_at) / Fold change /veh PRRT2 (11749266_a_at) / RFU SNX32 (11753110_a_at) / Fold change /veh SNX32 (11753110_a_at) / RFU CDHR5 (11726645_a_at) / Fold change /veh CDHR5 (11726645_a_at) / RFU RCAN1 (11760418_a_at) / Fold change /veh RCAN1 (11760418_a_at) / RFU FAM167A (11723789_a_at) / Fold change /veh FAM167A (11723789_a_at) / RFU FAM26E (11764081_at) / Fold change /veh FAM26E (11764081_at) / RFU ISYNA1 (11749810_s_at) / Fold change /veh ISYNA1 (11749810_s_at) / RFU ACY1 (11761880_at) / Fold change /veh ACY1 (11761880_at) / RFU 11764098_at / Fold change /veh 11764098_at / RFU SAMD14 (11745864_x_at) / Fold change /veh SAMD14 (11745864_x_at) / RFU NPB (11741838_a_at) / Fold change /veh NPB (11741838_a_at) / RFU TMPRSS6 (11731388_a_at) / Fold change /veh TMPRSS6 (11731388_a_at) / RFU KRTAP10-2 (11738614_at) / Fold change /veh KRTAP10-2 (11738614_at) / RFU ARHGAP8 /// PRR5-ARHGAP8 (11727945_x_at) / Fold change /veh ARHGAP8 /// PRR5-ARHGAP8 (11727945_x_at) / RFU KRTAP5-7 /// NADSYN1 (11734609_at) / Fold change /veh KRTAP5-7 /// NADSYN1 (11734609_at) / RFU RASL12 (11751679_a_at) / Fold change /veh RASL12 (11751679_a_at) / RFU CDKN2B (11736163_a_at) / Fold change /veh CDKN2B (11736163_a_at) / RFU PRF1 (11729649_at) / Fold change /veh PRF1 (11729649_at) / RFU, ZNF638 /// ZNF638-IT1 / Fold change vs veh, ZNF638 /// ZNF638-IT1 / RFU, PANK3 / Fold change vs veh, PANK3 / RFU, SH3YL1 / Fold change vs veh, SH3YL1 / RFU, ZEB2 / Fold change vs veh, ZEB2 / RFU, NRIP1 / Fold change vs veh, NRIP1 / RFU, PTTG1IP / Fold change vs veh, PTTG1IP / RFU, CAPN2 / Fold change vs veh, CAPN2 / RFU, MED14 / Fold change vs veh, MED14 / RFU, SNORA58 / Fold change vs veh, SNORA58 / RFU, C1orf63 / Fold change vs veh, C1orf63 / RFU, LRRFIP1 / Fold change vs veh, LRRFIP1 / RFU, NDUFAF7 / Fold change vs veh, NDUFAF7 / RFU, SLC12A2 / Fold change vs veh, SLC12A2 / RFU, IBTK / Fold change vs veh, IBTK / RFU, ESF1 / Fold change vs veh, ESF1 / Fold change vs veh, TMEM50B / RFU, TAOK1 / Fold change vs veh, TAOK1 / RFU, ACBD3 / Fold change vs veh, ACBD3 / RFU, TMA16 / Fold change vs veh, TMA16 / RFU, RWDD3 / Fold change vs veh, RWDD3 / RFU, BCAT1 / Fold change vs veh, BCAT1 / RFU, EDEM3 / Fold change vs veh, EDEM3 / RFU, TMEM33 / Fold change vs veh, TMEM33 / RFU, WDR75 / Fold change vs veh, WDR75 / RFU, AHCTF1 / Fold change vs veh, AHCTF1 / RFU, TFRC / Fold change vs veh, TFRC / RFU, ZDHHC17 / Fold change vs veh, ZDHHC17 / RFU, NOM1 / Fold change vs veh, NOM1 / RFU, ARL8B / Fold change vs veh, ARL8B / RFU, ZBTB11 / Fold change vs veh, ZBTB11 / RFU, TAMM41 / Fold change vs veh, TAMM41 / RFU, KIAA1704 /// LOC100996395 / Fold change vs veh, KIAA1704 /// LOC100996395 / RFU, ING1 / Fold change vs veh, ING1 / RFU, TRMT61B / Fold change vs veh, TRMT61B / RFU, FUBP3 / Fold change vs veh, FUBP3 / RFU, TP53 / Fold change vs veh, TP53 / RFU, TNKS2 / Fold change vs veh, TNKS2 / RFU, ZFP14 / Fold change vs veh, ZFP14 / RFU, ACTR2 / Fold change vs veh, ACTR2 / RFU, PPP3R1 / Fold change vs veh, PPP3R1 / RFU, PIK3R1 / Fold change vs veh, PIK3R1 / RFU, HNRNPA1 / Fold change vs veh, HNRNPA1 / RFU, RNF170 / Fold change vs veh, RNF170 / RFU, ZNF28 / Fold change vs veh, ZNF28 / RFU, RNGTT / Fold change vs veh, RNGTT / RFU, OGT / Fold change vs veh, OGT / RFU, BRD1 / Fold change vs veh, BRD1 / RFU, MARS / Fold change vs veh, MARS / RFU, ZNF655 / Fold change vs veh, ZNF655 / RFU, FAHD1 / Fold change vs veh, FAHD1 / RFU, BDP1 / Fold change vs veh, BDP1 / RFU, LRRCC1 / Fold change vs veh, LRRCC1 / RFU, ARID1A / Fold change vs veh, ARID1A / RFU, ZNF146 / Fold change vs veh, ZNF146 / RFU, ZNF330 / Fold change vs veh, ZNF330 / RFU, GPN3 / Fold change vs veh, GPN3 / RFU, C9orf123 / Fold change vs veh, C9orf123 / RFU, N4BP2L2 / Fold change vs veh, N4BP2L2 / RFU, ARFIP1 / Fold change vs veh, ARFIP1 / RFU, FAM179B / Fold change vs veh, FAM179B / RFU, BCL10 / Fold change vs veh, BCL10 / RFU, UHRF1BP1L / Fold change vs veh, UHRF1BP1L / RFU, BET1 / Fold change vs veh, BET1 / RFU, CNOT2 / Fold change vs veh, CNOT2 / RFU, ZNF268 / Fold change vs veh, ZNF268 / Fold change vs veh, ZNF507 / RFU, DGCR2 / Fold change vs veh, DGCR2 / RFU, WDSUB1 / Fold change vs veh, WDSUB1 / Fold change vs veh, HSP90B1 /// MIR3652 / RFU, ADSS / Fold change vs veh, ADSS / RFU, GK / Fold change vs veh, GK / RFU, ZNF148 / Fold change vs veh, ZNF148 / RFU, TAF9 / Fold change vs veh, TAF9 / RFU, SLC1A5 / Fold change vs veh, SLC1A5 / RFU, SLMO2 / Fold change vs veh, SLMO2 / RFU, ABCC4 / Fold change vs veh, ABCC4 / RFU, LOC101060439 /// RAP1B / Fold change vs veh, LOC101060439 /// RAP1B / RFU, RFX7 / Fold change vs veh, RFX7 / RFU, GTPBP10 / Fold change vs veh, GTPBP10 / RFU, CNEP1R1 / Fold change vs veh, CNEP1R1 / RFU, BIVM-ERCC5 /// ERCC5 / Fold change vs veh, BIVM-ERCC5 /// ERCC5 / RFU, ILF3 / Fold change vs veh, ILF3 / RFU 11762660_at / Fold change /veh 11762660_at / RFU VCAN (11757783_s_at) / Fold change /veh VCAN (11757783_s_at) / RFU DDX43 (11728927_at) / Fold change /veh DDX43 (11728927_at) / RFU KRT8 (11758188_x_at) / Fold change /veh KRT8 (11758188_x_at) / RFU NKD1 (11759106_at) / Fold change /veh NKD1 (11759106_at) / RFU SRD5A1 (11742802_a_at) / Fold change /veh SRD5A1 (11742802_a_at) / RFU TPSAB1 /// TPSB2 (11721975_s_at) / Fold change /veh TPSAB1 /// TPSB2 (11721975_s_at) / RFU GSTM3 (11746129_a_at) / Fold change /veh GSTM3 (11746129_a_at) / RFU IL23R (11737362_x_at) / Fold change /veh IL23R (11737362_x_at) / RFU TMEM51 (11727254_a_at) / Fold change /veh TMEM51 (11727254_a_at) / RFU PIWIL2 (11732686_x_at) / Fold change /veh PIWIL2 (11732686_x_at) / RFU ORM1 (11744905_x_at) / Fold change /veh ORM1 (11744905_x_at) / RFU CCDC152 (11743942_at) / Fold change /veh CCDC152 (11743942_at) / RFU ECM1 (11717891_a_at) / Fold change /veh ECM1 (11717891_a_at) / RFU IL23R (11748794_a_at) / Fold change /veh IL23R (11748794_a_at) / RFU TNFAIP8L3 (11732012_x_at) / Fold change /veh TNFAIP8L3 (11732012_x_at) / RFU MBOAT4 (11741988_at) / Fold change /veh MBOAT4 (11741988_at) / RFU 11764193_at / Fold change /veh 11764193_at / RFU TMEM53 (11763286_at) / Fold change /veh TMEM53 (11763286_at) / RFU MAGEB2 (11727129_at) / Fold change /veh MAGEB2 (11727129_at) / RFU TMEM200A (11744735_a_at) / Fold change /veh TMEM200A (11744735_a_at) / RFU CCDC152 (11751479_a_at) / Fold change /veh CCDC152 (11751479_a_at) / RFU FAM211A (11726209_a_at) / Fold change /veh FAM211A (11726209_a_at) / RFU RGS16 (11746705_a_at) / Fold change /veh RGS16 (11746705_a_at) / RFU VCAN (11755009_s_at) / Fold change /veh VCAN (11755009_s_at) / RFU RHOB (11743442_s_at) / Fold change /veh RHOB (11743442_s_at) / RFU RGS16 (11720943_a_at) / Fold change /veh RGS16 (11720943_a_at) / RFU RGS16 (11720944_at) / Fold change /veh RGS16 (11720944_at) / RFU, VPS4B / Fold change vs veh, VPS4B / RFU, CREB1 / Fold change vs veh, CREB1 / RFU, DNAJC13 / Fold change vs veh, DNAJC13 / RFU, GNAQ / Fold change vs veh, GNAQ / RFU, CDK5R1 / Fold change vs veh, CDK5R1 / RFU, ZRANB3 / Fold change vs veh, ZRANB3 / RFU, CUL4A / Fold change vs veh, CUL4A / RFU, CCNY / Fold change vs veh, CCNY / RFU, UFL1 / Fold change vs veh, UFL1 / RFU, COG3 / Fold change vs veh, COG3 / RFU, DIAPH2 / Fold change vs veh, DIAPH2 / RFU, SKA2 / Fold change vs veh, SKA2 / RFU, AFF3 / Fold change vs veh, AFF3 / RFU, LMF1 / Fold change vs veh, LMF1 / RFU, IPO11 / Fold change vs veh, IPO11 / RFU, DFFB / Fold change vs veh, DFFB / RFU, FOXP1 / Fold change vs veh, FOXP1 / RFU, CARD8 / Fold change vs veh, CARD8 / RFU, STRN3 / Fold change vs veh, STRN3 / RFU, ADK / Fold change vs veh, ADK / RFU, RASSF2 / Fold change vs veh, RASSF2 / RFU, WIPF1 / Fold change vs veh, WIPF1 / RFU, LARP1B / Fold change vs veh, LARP1B / RFU, RASA1 / Fold change vs veh, RASA1 / RFU, RB1 / Fold change vs veh, RB1 / RFU, PPFIA1 / Fold change vs veh, PPFIA1 / RFU, MAT2A / Fold change vs veh, MAT2A / RFU, CCT5 / Fold change vs veh, CCT5 / RFU, WDR92 / Fold change vs veh, WDR92 / RFU, CUX1 / Fold change vs veh, CUX1 / RFU, TTC7A / Fold change vs veh, TTC7A / RFU, TMEM135 / Fold change vs veh, TMEM135 / RFU, DEPTOR / Fold change vs veh, DEPTOR / RFU, CPM / Fold change vs veh, CPM / RFU, DNAJB6 / Fold change vs veh, DNAJB6 / RFU, CACNA2D3 / Fold change vs veh, CACNA2D3 / RFU, DTX4 / Fold change vs veh, DTX4 / RFU, TFCP2 / Fold change vs veh, TFCP2 / RFU, GMCL1 /// GMCL1P1 / Fold change vs veh, GMCL1 /// GMCL1P1 / RFU, AEBP2 / Fold change vs veh, AEBP2 / RFU, SNHG1 /// SNORD22 /// SNORD25 /// SNORD26 /// SNORD27 /// SNORD28 /// SNORD29 /// SNORD31 / Fold change vs veh, SNHG1 /// SNORD22 /// SNORD25 /// SNORD26 /// SNORD27 /// SNORD28 /// SNORD29 /// SNORD31 / Fold change (Aza/veh), C12orf56 (ProbeSet 11735607_a_at) / Fold change (ACY-1035/veh), C12orf56 (ProbeSet 11735607_a_at) / Fold change (Aza/veh), FGFR1OP (ProbeSet 11751329_s_at) / Fold change (ACY-1035/veh), FGFR1OP (ProbeSet 11751329_s_at) / Fold change (Aza/veh), VPS36 (ProbeSet 11739960_a_at) / Fold change (ACY-1035/veh), VPS36 (ProbeSet 11739960_a_at) / RFU SYPL1 (11715823_x_at) / Fold change /veh SYPL1 (11715823_x_at) / RFU IGFBP7 (11715501_s_at) / Fold change /veh IGFBP7 (11715501_s_at) / RFU REEP3 (11722064_at) / Fold change /veh REEP3 (11722064_at) / RFU IGLL1 (11728026_x_at) / Fold change /veh IGLL1 (11728026_x_at): dose or concentration left out as unconfirmed. To be noted: MV-4-11 cells, 48 hours.

As to `Nc1ccc(-c2cccs2)cc1NC(=O)c1ccc2c(c1)cc(C1CC1)n2CCN1CCOCC1` [ACY-1035], the “RFU NR4A2 (11747474_a_at)” value stood at 22.98 RFU.
